{"source": "patent US10472358B2", "about": "“1H-pyrrolo[2,3-c]pyridin-7(6H)-ones and pyrazolo[3,4-c]pyridin-7(6H)-ones as inhibitors of BET proteins” (Incyte Corporation, priority 2014, dated 2019)", "data": [{"system": "KMS.12.BM cells", "assay": "KMS.12.BM cell viability assay (Cell Titer-GLO, ATP quantitation)", "format": "cell-based", "settings": "KMS-12-BM, 72 h; human myeloma cells, 3 days, concentration required for 50% cell death", "protocol": "Example B1: KMS.12.BM Cell Viability Assay\nKMS.12.BM cell line (human myeloma) was purchased from JCRB (Osaka, Japan) and maintained in RPMI with 10% FBS culture medium. To measure the cytotoxic activity of the compounds through ATP quantitation, the KMS.12.BM cells are plated in the RPMI culture medium at 5000 cells/well/per 100 μL into a 96-well polystyrene clear black tissue culture plate (Greiner-bio-one through VWR, NJ), in the presence or absence of a concentration range of test compounds. After 3 days, […] Cell Titer-GLO Luminescent (Promega, Madison, Wis.) cell culture agent is added to each well for 10 minutes at room temperature to stabilize the luminescent signal. This determines the number of viable cells in culture based on quantitation of the ATP present, which signals the presence of metabolically active cells. Luminescence is measured with the Top Count 384 (Packard Bioscience through Perkin Elmer, Boston, Mass.). Compound inhibition is determined relative to cells cultured with no drug and the IC50 is reported as the compound concentration required for 50% cell death.", "units": {"IC50": "nM"}, "values": [{"smiles": "CCN1C(=O)C(C(C)C)Oc2c(-c3cn(C)c(=O)c4[nH]ccc34)cc(S(C)(=O)=O)cc21", "note": "(stereo not shown) [Example 54, 4-ethyl-2-isopropyl-8-(6-methyl-7-oxo-6,7-dihydro-1H-pyrrolo[2,3-c]pyridin-4-yl)-6-(methylsulfonyl)-2H-1,4-benzoxazin-3(4H)-one]", "IC50": "≤ 1000"}, {"smiles": "CCS(=O)(=O)c1cc(-c2cn(C)c(=O)c3[nH]ccc23)c2c(c1)N(C)C(=O)C(C(C)C)O2", "note": "(stereo not shown) [Example 55, 6-(ethylsulfonyl)-2-isopropyl-4-methyl-8-(6-methyl-7-oxo-6,7-dihydro-1H-pyrrolo[2,3-c]pyridin-4-yl)-2H-1,4-benzoxazin-3(4H)-one]", "IC50": "≤ 1000"}, {"smiles": "CC(C)C1Oc2c(-c3cn(C)c(=O)c4[nH]ccc34)cc(S(=O)(=O)C(C)C)cc2N(C)C1=O", "note": "(stereo not shown) [Example 56, 2-isopropyl-6-(isopropylsulfonyl)-4-methyl-8-(6-methyl-7-oxo-6,7-dihydro-1H-pyrrolo[2,3-c]pyridin-4-yl)-2H-1,4-benzoxazin-3(4H)-one]", "IC50": "≤ 1000"}, {"smiles": "Cn1cc(-c2cc(S(C)(=O)=O)cc3c2OC2(CC2)C(=O)N3)c2cc[nH]c2c1=O", "note": "[Example 57, 8-(6-methyl-7-oxo-6,7-dihydro-1H-pyrrolo[2,3-c]pyridin-4-yl)-6-(methylsulfonyl)spiro[1,4-benzoxazine-2,1′-cyclopropan]-3(4H)-one]", "IC50": "≤ 1000"}, {"smiles": "Cn1cc(-c2cc(S(C)(=O)=O)cc3c2NC(C)(C)C(=O)N3)c2cc[nH]c2c1=O", "note": "[Example 58, 3,3-dimethyl-5-(6-methyl-7-oxo-6,7-dihydro-1H-pyrrolo[2,3-c]pyridin-4-yl)-7-(methylsulfonyl)-3,4-dihydroquinoxalin-2(1H)-one]", "IC50": "≤ 1000"}, {"smiles": "Cn1cc(-c2cc(S(C)(=O)=O)cc3c2NC2(CCCC2)C(=O)N3)c2cc[nH]c2c1=O", "note": "[Example 59, 8′-(6-methyl-7-oxo-6,7-dihydro-1H-pyrrolo[2,3-c]pyridin-4-yl)-6′-(methylsulfonyl)-1′,4′-dihydro-3′H-spiro[cyclopentane-1,2′-quinoxalin]-3′-one]", "IC50": "≤ 1000"}, {"smiles": "CC(C)[C@@H]1Nc2c(cc(S(C)(=O)=O)cc2-c2cn(C)c(=O)c3[nH]ccc23)NC1=O", "note": "[Example 60, (3S)-3-isopropyl-5-(6-methyl-7-oxo-6,7-dihydro-1H-pyrrolo[2,3-c]pyridin-4-yl)-7-(methylsulfonyl)-3,4-dihydroquinoxalin-2(1H)-one]", "IC50": "≤ 1000"}, {"smiles": "CC(C)[C@H]1Nc2c(cc(S(C)(=O)=O)cc2-c2cn(C)c(=O)c3[nH]ccc23)NC1=O", "note": "[Example 61, (3R)-3-isopropyl-5-(6-methyl-7-oxo-6,7-dihydro-1H-pyrrolo[2,3-c]pyridin-4-yl)-7-(methylsulfonyl)-3,4-dihydroquinoxalin-2(1H)-one]", "IC50": "≤ 1000"}, {"smiles": "Cn1cc(-c2cc(S(C)(=O)=O)cc3c2NC2(CCC2)C(=O)N3)c2cc[nH]c2c1=O", "note": "[Example 62, 8′-(6-methyl-7-oxo-6,7-dihydro-1H-pyrrolo[2,3-c]pyridin-4-yl)-6′-(methylsulfonyl)-1′,4′-dihydro-3′H-spiro[cyclobutane-1,2′-quinoxalin]-3′-one]", "IC50": "≤ 1000"}, {"smiles": "CN1C(=O)C2(CC2)Oc2c(-c3cn(C)c(=O)c4[nH]ccc34)cc(S(C)(=O)=O)cc21", "note": "[Example 63, 4-methyl-8-(6-methyl-7-oxo-6,7-dihydro-1H-pyrrolo[2,3-c]pyridin-4-yl)-6-(methylsulfonyl)spiro[1,4-benzoxazine-2,1′-cyclopropan]-3(4H)-one]", "IC50": "≤ 1000"}, {"smiles": "Cn1cc(-c2cc(S(C)(=O)=O)cc3c2NC2(CCCCC2)C(=O)N3)c2cc[nH]c2c1=O", "note": "[Example 64, 8′-(6-methyl-7-oxo-6,7-dihydro-1H-pyrrolo[2,3-c]pyridin-4-yl)-6′-(methylsulfonyl)-1′,4′-dihydro-3′H-spiro[cyclohexane-1,2′-quinoxalin]-3′-one]", "IC50": "≤ 1000"}, {"smiles": "Cn1cc(-c2cc(S(C)(=O)=O)cc3c2OC2(CC2)C(=O)N3)c2cn[nH]c2c1=O", "note": "[Example 65, 8-(6-methyl-7-oxo-6,7-dihydro-1H-pyrazolo[3,4-c]pyridin-4-yl)-6-(methylsulfonyl)spiro[1,4-benzoxazine-2,1′-cyclopropan]-3(4H)-one]", "IC50": "≤ 1000"}, {"smiles": "CN1C(=O)C2(CC2)Oc2c(-c3cn(C)c(=O)c4[nH]ncc34)cc(S(C)(=O)=O)cc21", "note": "[Example 66, 4-methyl-8-(6-methyl-7-oxo-6,7-dihydro-1H-pyrazolo[3,4-c]pyridin-4-yl)-6-(methylsulfonyl)spiro[1,4-benzoxazine-2,1′-cyclopropan]-3(4H)-one]", "IC50": "≤ 1000"}, {"smiles": "CC(C)C1Oc2c(cc(S(=O)(=O)N(C)C)cc2-c2cn(C)c(=O)c3[nH]ccc23)NC1=O", "note": "(stereo not shown) [Example 67, 2-isopropyl-N,N-dimethyl-8-(6-methyl-7-oxo-6,7-dihydro-1H-pyrrolo[2,3-c]pyridin-4-yl)-3-oxo-3,4-dihydro-2H-1,4-benzoxazine-6-sulfonamide]", "IC50": "≤ 1000"}, {"smiles": "CNS(=O)(=O)c1cc2c(c(-c3cn(C)c(=O)c4[nH]ccc34)c1)OC(C(C)C)C(=O)N2", "note": "(stereo not shown) [Example 68, 2-isopropyl-N-methyl-8-(6-methyl-7-oxo-6,7-dihydro-1H-pyrrolo[2,3-c]pyridin-4-yl)-3-oxo-3,4-dihydro-2H-1,4-benzoxazine-6-sulfonamide]", "IC50": "≤ 1000"}, {"smiles": "CN1C(=O)C(C)(C)Oc2c(-c3cn(C)c(=O)c4[nH]ccc34)cc(S(=O)(=O)N(C)C)cc21", "note": "[Example 69, N,N,2,2,4-pentamethyl-8-(6-methyl-7-oxo-6,7-dihydro-1H-pyrrolo[2,3-c]pyridin-4-yl)-3-oxo-3,4-dihydro-2H-1,4-benzoxazine-6-sulfonamide]", "IC50": "≤ 1000"}, {"smiles": "CN(C)S(=O)(=O)c1cc2c(c(-c3cn(C)c(=O)c4[nH]ccc34)c1)OC(C)(C)C(=O)N2", "note": "[Example 70, N,N,2,2-tetramethyl-8-(6-methyl-7-oxo-6,7-dihydro-1H-pyrrolo[2,3-c]pyridin-4-yl)-3-oxo-3,4-dihydro-2H-1,4-benzoxazine-6-sulfonamide]", "IC50": "≤ 1000"}, {"smiles": "CC(C)C1Oc2c(-c3cn(C)c(=O)c4[nH]ccc34)cc(S(=O)(=O)N(C)C)cc2N(C)C1=O", "note": "(stereo not shown) [Example 71, 2-isopropyl-N,N,4-trimethyl-8-(6-methyl-7-oxo-6,7-dihydro-1H-pyrrolo[2,3-c]pyridin-4-yl)-3-oxo-3,4-dihydro-2H-1,4-benzoxazine-6-sulfonamide]", "IC50": "≤ 1000"}, {"smiles": "Cn1cc(-c2cc(S(=O)(=O)N3CCCCC3)cc3c2OC(C)(C)C(=O)N3)c2cc[nH]c2c1=O", "note": "[Example 72, 2,2-dimethyl-8-(6-methyl-7-oxo-6,7-dihydro-1H-pyrrolo[2,3-c]pyridin-4-yl)-6-(piperidin-1-ylsulfonyl)-2H-1,4-benzoxazin-3(4H)-one]", "IC50": "≤ 1000"}, {"smiles": "CN1C(=O)C(C)(C)Oc2c(-c3cn(C)c(=O)c4[nH]ccc34)cc(S(=O)(=O)N3CCCCC3)cc21", "note": "[Example 73, 2,2,4-trimethyl-8-(6-methyl-7-oxo-6,7-dihydro-1H-pyrrolo[2,3-c]pyridin-4-yl)-6-(piperidin-1-ylsulfonyl)-2H-1,4-benzoxazin-3(4H)-one]", "IC50": "≤ 1000"}, {"smiles": "CC(C)NS(=O)(=O)c1cc2c(c(-c3cn(C)c(=O)c4[nH]ccc34)c1)OC(C)(C)C(=O)N2", "note": "[Example 74, N-isopropyl-2,2-dimethyl-8-(6-methyl-7-oxo-6,7-dihydro-1H-pyrrolo[2,3-c]pyridin-4-yl)-3-oxo-3,4-dihydro-2H-1,4-benzoxazine-6-sulfonamide]", "IC50": "≤ 1000"}, {"smiles": "CN1C(=O)C(C)(C)Oc2c(-c3cn(C)c(=O)c4[nH]ccc34)cc(S(C)(=O)=O)cc21", "note": "[Example 75, 2,2,4-trimethyl-8-(6-methyl-7-oxo-6,7-dihydro-1H-pyrrolo[2,3-c]pyridin-4-yl)-6-(methylsulfonyl)-2H-1,4-benzoxazin-3(4H)-one]", "IC50": "≤ 1000"}, {"smiles": "CCS(=O)(=O)c1cc(-c2cn(C)c(=O)c3[nH]ccc23)c2c(c1)N(C)C(=O)C(C)(C)O2", "note": "[Example 76, 6-(ethylsulfonyl)-2,2,4-trimethyl-8-(6-methyl-7-oxo-6,7-dihydro-1H-pyrrolo[2,3-c]pyridin-4-yl)-2H-1,4-benzoxazin-3(4H)-one]", "IC50": "≤ 1000"}, {"smiles": "CC(C)S(=O)(=O)c1cc(-c2cn(C)c(=O)c3[nH]ccc23)c2c(c1)N(C)C(=O)C(C)(C)O2", "note": "[Example 77, 6-(isopropylsulfonyl)-2,2,4-trimethyl-8-(6-methyl-7-oxo-6,7-dihydro-1H-pyrrolo[2,3-c]pyridin-4-yl)-2H-1,4-benzoxazin-3(4H)-one]", "IC50": "≤ 1000"}, {"smiles": "CCS(=O)(=O)c1cc2c(c(-c3cn(C)c(=O)c4[nH]ccc34)c1)OC(C)(C)C(=O)N2", "note": "[Example 78, 6-(ethylsulfonyl)-2,2-dimethyl-8-(6-methyl-7-oxo-6,7-dihydro-1H-pyrrolo[2,3-c]pyridin-4-yl)-2H-1,4-benzoxazin-3(4H)-one]", "IC50": "≤ 1000"}, {"smiles": "CC(C)S(=O)(=O)c1cc2c(c(-c3cn(C)c(=O)c4[nH]ccc34)c1)OC(C)(C)C(=O)N2", "note": "[Example 79, 6-(isopropylsulfonyl)-2,2-dimethyl-8-(6-methyl-7-oxo-6,7-dihydro-1H-pyrrolo[2,3-c]pyridin-4-yl)-2H-1,4-benzoxazin-3(4H)-one]", "IC50": "≤ 1000"}, {"smiles": "CC(O)c1cc2c(c(-c3cn(C)c(=O)c4[nH]ccc34)c1)OC(C)(C)C(=O)N2", "note": "(stereo not shown) [Example 81, 6-(1-hydroxyethyl)-2,2-dimethyl-8-(6-methyl-7-oxo-6,7-dihydro-1H-pyrrolo[2,3-c]pyridin-4-yl)-2H-1,4-benzoxazin-3(4H)-one]", "IC50": "≤ 1000"}, {"smiles": "CC(O)c1cc(-c2cn(C)c(=O)c3[nH]ccc23)c2c(c1)N(C)C(=O)C(C)(C)O2", "note": "(stereo not shown) [Example 83, 6-(1-hydroxyethyl)-2,2,4-trimethyl-8-(6-methyl-7-oxo-6,7-dihydro-1H-pyrrolo[2,3-c]pyridin-4-yl)-2H-1,4-benzoxazin-3(4H)-one]", "IC50": "≤ 1000"}]}]}
